Measurements as given in patent US20260199323A1, “LIGAND COMPOUNDS FOR E3 UBIQUITIN LIGASE, PROTEIN DEGRADERS DEVELOPED ON BASIS OF LIGAND COMPOUNDS, AND USES THEREOF” (GLUETACS THERAPEUTICS (SHANGHAI) CO., LTD., priority 2021, published 2026).

Experiments:
Mino = assay: CCK-8 tumor cell proliferation, Mino; type: cell-based, Human; settings: Table 13, designed based on BCR-ABL inhibitors; 72 h
Procedure, shortened: (§1)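 Viability determined colorimetrically with CCK-8 following compound treatment. Dosing began 24 h post-plating using ten 5-fold dilutions capped at 10 μM; growth-inhibition curves yielded IC50.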

K562 = assay: CCK-8 tumor cell proliferation, K562; set-up: species or system Human; settings: Table 13, designed based on BCR-ABL inhibitors; 72 h
Protocol: (§2) The tumor cells used herein were cultured in a cell culture medium listed in table 4 at 37° C. in an incubator with 5% CO2. Prior to experimentation, all cells used were correctly identified by STR profiling, and tested negative for mycoplasma through routine screenings.
(§3) IC50 values of the compounds of the present disclosure (including the compounds in Tables 1 and 3, and compounds of examples) were measured using the Meilun Cell Counting Kit-8 kit from Dalian Meilun Biotech Co., Ltd. Assay details are as follows: tumor cells were seeded in a 96-well plate at a density listed in Table 5. After 24 h, 100 μL of the inoculated cells were treated with 0.5 μL of the compounds of the present disclosure (including the compounds in Tables 1 and 3, and compounds of examples) at 10 different successively decreasing concentrations (starting at the highest concentration of 10 μM; 5-fold serial dilutions). After the cells were treated with the compounds of the present disclosure for a period of time, the cell viability detection reagent was added to the culture medium for cell viability assessment according to the instructions provided with the CCK-8 kit. […] The growth inhibition of the compounds of the present disclosure on cells was plotted by Prism Graphpad software, and the IC50 values of the compounds of the present disclosure were calculated therefrom.

Kasumi-1 = assay: CCK-8 tumor cell proliferation, Kasumi-1; type: cell-based, Human; settings: 72 h
Procedure, shortened: as §1

Ramos = assay: CCK-8 tumor cell proliferation, Ramos; settings: Homo sapiens, Table 9, designed based on SHP2 inhibitors, 72 h, read-out: IC50 for inhibiting the proliferation of tumor cells, Ramos
Protocol: as §2, §3

MM.1S = assay: CCK-8 tumor cell proliferation, MM.1S; type: cell-based; settings: Table 6, designed based on STAT3 inhibitors; 72 h
Procedure, shortened: as §1

T47D = assay: CCK-8 tumor cell proliferation, T47D; type: cell-based, Human; settings: Table 6, designed based on STAT3 inhibitors; 96 h
Protocol: as §2, §3

CCRF-CEM = assay: CCK-8 tumor cell proliferation, CCRF-CEM; type: cell-based, Human; set-up: IC50 for inhibiting the proliferation of tumor cells, CCRF-CEM: scale not given here; settings: 96 h
Procedure, shortened: as §1

SNU-182 = assay: CCK-8 tumor cell proliferation, SNU-182; set-up: species or system Human; settings: Table 6, designed based on STAT3 inhibitors; 96 h
Protocol: as §2, §3

Daudi = assay: CCK-8 tumor cell proliferation, Daudi; set-up: species or system Human; settings: Table 13, designed based on BCR-ABL inhibitors; 96 h
Protocol: as §2, §3

CAL-62 = assay: CCK-8 tumor cell proliferation, CAL-62; type: cell-based, Human; set-up: IC50 for inhibiting the proliferation of tumor cells, CAL-62: scale not given here; settings: Table 13, designed based on BCR-ABL inhibitors; 72 h
Procedure, shortened: as §1

TMD8 = assay: CCK-8 tumor cell proliferation, TMD8; set-up: species or system Human; settings: Table 13, designed based on BCR-ABL inhibitors; 72 h
Protocol: as §2, §3

[1] = Table 13, designed based on BCR-ABL inhibitors
[2] = Table 6, designed based on STAT3 inhibitors

IC50 for inhibiting the proliferation of tumor cells, Mino (Mino)	IC50 for inhibiting the proliferation of tumor cells, K562 (K562)	IC50 for inhibiting the proliferation of tumor cells, Kasumi-1 (Kasumi-1; [1])	IC50 for inhibiting the proliferation of tumor cells, CCRF-CEM (CCRF-CEM; [1])	Compound	further results
A+	A+	A+	–	Cc1nc(Nc2ncc(C(=O)Nc3c(C)cccc3Cl)s2)cc(N2CCN(Cc3ccc4c(c3)CN(C3CCC(=O)NC3=O)C4=O)CC2)n1 (stereo not drawn) [GT-03215, N-(2-chloro-6-methylphenyl)-2-((6-(4-((2-(2,6-dioxopiperidin-3-yl)-1-oxoisoindolin-5-yl)methyl)piperazin-1-yl)-2-methylpyrimidin-4-yl)amino)thiazole-5-carboxamide]	–
–	–	–	–	CC1(N)CCN(c2cnc3c(-c4cccc(Cl)c4Cl)n[nH]c3n2)CC1 [GT-03336]	IC50 (Ramos): > 10 µM
–	–	–	–	O=C1CCC(N2Cc3cc(CNC(=O)c4cc5c(o4)C(=O)c4ccccc4C5=O)ccc3C2=O)C(=O)N1 (stereo not drawn) [GT-03383, N-((2-(2,6-dioxopiperidin-3-yl)-1-oxoisoindolin-5-yl)methyl)-4,9-dioxo-4,9-dihydronaphtho[2,3-b]furan-2-carboxamide]	IC50 for inhibiting the proliferation of tumor cells, MM.1S (MM.1S): A+; IC50 for inhibiting the proliferation of tumor cells, T47D (T47D): A+; IC50 for inhibiting the proliferation of tumor cells, CCRF-CEM (CCRF-CEM; [2]): A+; IC50 for inhibiting the proliferation of tumor cells, SNU-182 (SNU-182): A+; IC50 for inhibiting the proliferation of tumor cells, Kasumi-1 (Kasumi-1; [2]): A+
A+	A+	A+	A+	Cc1ccc(C(=O)Nc2ccc(CN3CCN(Cc4ccc5c(c4)CN(C4CCC(=O)NC4=O)C5=O)CC3)c(C(F)(F)F)c2)cc1C#Cc1cnc2cccnn12 (stereo not drawn) [GT-03804, N-(4-((4-((2-(2,6-dioxopiperidin-3-yl)-1-oxoisoindolin-5-yl)methyl)piperazin-1-yl)methyl)-3-(trifluoromethyl)phenyl)-3-(imidazo[1,2-b]pyridazin-3-ylethynyl)-4-methylbenzamide]	IC50 for inhibiting the proliferation of tumor cells, Daudi (Daudi): A+; IC50 for inhibiting the proliferation of tumor cells, CAL-62 (CAL-62): A+
–	A+	–	A+	Cc1ccc(C(=O)Nc2ccc(N3CCN(Cc4ccc5c(c4)CN(C4CCC(=O)NC4=O)C5=O)CC3)c(C(F)(F)F)c2)cc1C#Cc1cnc2cccnn12 (stereo not drawn) [GT-03805, N-(4-(4-((2-(2,6-dioxopiperidin-3-yl)-1-oxoisoindolin-5-yl)methyl)piperazin-1-yl)-3-(trifluoromethyl)phenyl)-3-(imidazo[1,2-b]pyridazin-3-ylethynyl)-4-methylbenzamide]	–
–	–	–	–	Cc1ccc(NC(=O)c2ccc(CN(C)Cc3ccc4c(c3)CN(C3CCC(=O)NC3=O)C4=O)cc2)cc1Nc1nccc(-c2cccnc2)n1 (stereo not drawn) [GT-03990, 4-((((2-(2,6-dioxopiperidin-3-yl)-1-oxoisoindolin-5-yl)methyl)(methyl)amino)methyl)-N-(4-methyl-3-((4-(pyridin-3-yl)pyrimidin-2-yl)amino)phenyl)benzamide]	IC50 for inhibiting the proliferation of tumor cells, TMD8 (TMD8): A+
